Data taken from publication PMC6470675, “Design and Synthesis of New Quinoxaline Derivatives as Anticancer Agents and Apoptotic Inducers” (Molecules, 2019).

Columns and labels:
VEGFR-2 [1] = target: T1, VEGFR-2 (Homo sapiens, UniProt P35968); settings: cited from earlier work
T1 construct: purchased Bio Science Corporation (BPS), San Diego, CA, USA

HCT116 cells [2] = experiment: Annexin V-FITC/PI apoptosis determination; format: cell-based, human; settings: IC50 (2.5 µM), 24 h and 48 h, compared to DMSO treated cells
Source text: For further investigation of the ability of compound VIIIc to induce apoptosis, an Annexin V (conjugated to FITC) apoptosis detection kit was employed. This assay detects phosphatidylserine (PS) expressed on the surface of apoptotic cells and fluoresces green after interacting with the labeled annexin V. During early apoptosis, membrane asymmetry is lost, and PS translocates from the cytoplasmic side of the membrane to the external leaflet. Propidium iodide (PI), the counterstain used in this assay, has the ability to cross only compromised membranes to intercalate into the DNA. Therefore, PI is used to detect the late stages of apoptosis by presence of red fluorescence.
Apoptosis was determined by staining cells with Annexin V–fluorescein isothiocyanate (FITC) and counterstaining with propidium iodide (PI) using the Annexin V–FITC/PI apoptosis detection kit (BD PharMingen, San Diego, CA, USA) according to the manufacturer’s instructions. Briefly, 4 × 10^6 cell/T 75 flask were exposed to compound VIIIc at its IC50 concentration for 24 and 48 h. The cells then were collected by trypsinization and 0.5 × 10^6 cells were washed twice with phosphate-buffered saline (PBS) and stained with 5 μL Annexin V–FITC and 5 μL PI in 1× binding buffer (BD PharMingen) for 15 min at room temperature in the dark. Analyses were performed using FACS Calibur flow cytometer (BD Biosciences).

[3] = test system: three tumor cell lines (HCT116, Hep G2 and MCF-7); experiment: In vitro anti-cancer activity stated for the tested cell lines together; format: cell-based, human; settings: HCT116, Hep G2 and MCF-7 together
Protocol: (§1) The targeted compounds were tested for their in-vitro anti-cancer activity against three tumor cell lines (HCT116, Hep G2 and MCF-7). Doxorubicin was included in the experiments as a reference cytotoxic compound. Exponentially growing cells from different cancer cell lines were trypsinized, counted and seeded at the appropriate densities into 96-well microtiter plates. Cells then were incubated in a humidified atmosphere at 37 °C for 24 h. Then, cells were exposed to different concentrations of compounds for 72 h. Then the viability of treated cells was determined using MTT technique (described latter).
(§2) Three cancer cell lines including human colon carcinoma (HCT116), human breast adenocarcinoma (MCF-7) and human hepatocellular carcinoma (Hep G2), were purchased from American Type Cell Culture Collection (ATCC, Manassas, VA, USA) and grown on the appropriate growth medium Dulbecco’s modified Eagle’s medium (DMEM) or Roswell Park Memorial Institute medium (RPMI 1640) supplemented with […] of streptomycin, 100 units/mL of penicillin and 10% of heat-inactivated fetal bovine serum in a humidified, 5% (v/v) CO2 atmosphere at 37 °C [34]. Cytotoxicity assay by 3-[4,5-dimethylthiazole-2-yl]-2,5-diphenyltetrazolium bromide (MTT).
Exponentially growing cells from different cancer cell lines were trypsinized, counted and seeded at the appropriate densities (2000–1000 cells/0.33 cm^2 well) into 96-well microtiter plates. Cells then were incubated in a humidified atmosphere at 37 °C for 24 h. Then, cells were exposed to different concentrations of compounds (0.1, 10, 100, 1000 µM) for 72 h. Then the viability of treated cells was determined using MTT technique as follow. Media were removed; cells were incubated with 200 μL of 5% MTT solution/well (Sigma Aldrich, Darmstadt, Germany) and were allowed to metabolize the dye into a colored-insoluble formazan crystal for 2 h. […] Absorbance were measured at 570 nm using a Stat Fax^R 4200 plate reader (Awareness Technology, Inc., Awareness Technology, FL, USA). […]

[4] = test system: fibroblast-like fetal lung cell line (WI-38); experiment: In vitro MTT cytotoxicity assay on normal WI-38 cells
Protocol: Cell Line cells were obtained from American Type Culture Collection, cells were cultured using DMEM (Invitrogen/Life Technologies, Waltham, MA, USA) supplemented with 10% FBS (Hyclone, Waltham, MA, USA), 10 μg/mL of insulin (Sigma), and 1% penicillin-streptomycin. All of the other chemicals and reagents were from Sigma, or Invitrogen. Plate cells (cells density 1.2–1.8 × 10,000 cells/well) in a volume of 100 µL complete growth medium + 100 μL of the tested compound per well in a 96-well plate for 24 h before the MTT assay.

[5] = test system: Hep G2 human hepatocellular carcinoma cell line; experiment: In vitro cell proliferation (MTT) assay, Hep G2; format: cell-based
Protocol: as §1, §2
(§3) Exponentially growing cells from different cancer cell lines were trypsinized, counted and seeded at the appropriate densities (2000–1000 cells/0.33 cm^2 well) into 96-well microtiter plates. Cells then were incubated in a humidified atmosphere at 37 °C for 24 h. Then, cells were exposed to different concentrations of compounds (0.1, 10, 100, 1000 µM) for 72 h. Then the viability of treated cells was determined using MTT technique as follow. Media were removed; cells were incubated with 200 μL of 5% MTT solution/well (Sigma Aldrich, Darmstadt, Germany) and were allowed to metabolize the dye into a colored-insoluble formazan crystal for 2 h. The remaining MTT solution were discarded from the wells and the formazan crystals were dissolved in 200 µl/well acidified isopropanol for 30 min, covered with aluminum foil and with continuous shaking using a MaxQ 2000 plate shaker (Thermo Fisher Scientific Inc, Waltham, MA, USA) at room temperature. Absorbance were measured at 570 nm using a Stat Fax^R 4200 plate reader (Awareness Technology, Inc., Awareness Technology, FL, USA). The cell viability was expressed as percentage of control and the concentration that induces 50% of maximum inhibition of cell proliferation (IC50) were determined using Graph Pad Prism version 5 software (Graph Pad Software Inc, San Diego, CA, USA) (1,2).

[6] = test system: HCT116 human colon carcinoma cell line; experiment: In vitro cell proliferation (MTT) assay, HCT116; format: cell-based; settings: Homo sapiens, HCT-116; MTT, 72 h exposure
Protocol: as §1, §2, §3

HCT116 cells [7] = experiment: Cell cycle analysis by flow cytometry; format: cell-based, human; settings: 2.5 µM
Protocol: The effect of compound VIIIc on the normal cell cycle progression was characterized using flow cytometric analysis of the DNA ploidy in HCT116 cells Figure 3. […] The observed increase in pre-G cell population may imply DNA fragmentation and apoptosis as a potential mechanism for VIIIc-induced cancer cell death.
HCT116 cells at a density of 4 × 10^6 cell/T 75 flask were exposed to 1-(4-Chlorophenyl)-3-(4-((3-methylquinoxalin-2-yl)amino)phenyl)urea VIIIc at its IC50 concentration for 24 and 48 h. The cells then were collected by trypsinization, washed with phosphate buffered saline (PBS), and fixed in ice-cold absolute alcohol. Thereafter, cells were stained, using Cycle test ^TM Plus DNA Reagent Kit (BD Biosciences, San Jose, CA, USA), according to the manufacturer’s instructions. Cell cycle distribution was determined using a FACS Calibur flow cytometer (BD Biosciences).

VEGFR-2 [8] = target: T1, VEGFR-2; experiment: In vitro VEGFR-2 inhibition assay (Kinase-Glo Plus luminescence); format: biochemical
Protocol: In an attempt to investigate the possible mechanism of action of the synthesized compounds based on structural similarity with sorafenib, all of them were tested for VEGFR-2 inhibitory activity at Bio Science Corporation (BPS, San Diego, CA, USA). The assay was performed using the Kinase-Glo Plus luminescence kinase assay kit (Promega, San Diego, CA, USA). It measures kinase activity by quantitating the amount of ATP remaining in solution following a kinase reaction. […].
The in-vitro enzyme inhibition determination for the synthesized compounds was carried out at Bio Science Corporation (BPS)-San Diego, CA, USA. The assay was performed using Kinase-Glo Plus luminescence kinase assay kit (Promega), where the kinase activity was measured by quantitating the amount of ATP remaining in solution following a kinase reaction. The luminescent signal from the assay is correlated with the amount of ATP present and is inversely correlated with the amount of kinase activity. Our compounds were diluted with 10% DMSO and 5 µL of the dilution was added to a 50 µL reaction so that the final concentration of DMSO is 1% in all of reactions. All of the enzymatic reactions were conducted at 30 °C for 40 min. The 50 µL reaction mixture contains 40 mM Tris, pH 7.4, 10 mM MgCl2, 0.1 mg/mL BSA, 1 mM DTT, 10 µM ATP, Kinase substrate and the enzyme. After the enzymatic reaction, 50 µL of Kinase-Glo Plus Luminescence kinase assay solution (Promega San Diego, CA, USA) was added to each reaction and incubate the plate for 5 min at room temperature. Luminescence signal was measured using a BioTek Synergy 2 microplate reader.
Kinase activity assays were performed in duplicate at each concentration. The luminescence data were analyzed using the computer software, Graphpad Prism. The difference between luminescence intensities in the absence of Kinase (Lut) and in the presence of Kinase (Luc) was defined as 100% activity (Lut − Luc). Using luminescence signal (Lu) in the presence of the compound, % activity was calculated as:% activity = {(Lut − Lu)(Lut − Luc)} × 100% where Lu = the luminescence intensity in the presence of the compound.

[9] = test system: MCF-7 human breast adenocarcinoma cell line; experiment: In vitro cell proliferation (MTT) assay, MCF-7; format: cell-based; settings: Homo sapiens, MCF7; MTT, 72 h exposure
Protocol: as §1, §2, §3

T1 sequence (P35968 20-1356): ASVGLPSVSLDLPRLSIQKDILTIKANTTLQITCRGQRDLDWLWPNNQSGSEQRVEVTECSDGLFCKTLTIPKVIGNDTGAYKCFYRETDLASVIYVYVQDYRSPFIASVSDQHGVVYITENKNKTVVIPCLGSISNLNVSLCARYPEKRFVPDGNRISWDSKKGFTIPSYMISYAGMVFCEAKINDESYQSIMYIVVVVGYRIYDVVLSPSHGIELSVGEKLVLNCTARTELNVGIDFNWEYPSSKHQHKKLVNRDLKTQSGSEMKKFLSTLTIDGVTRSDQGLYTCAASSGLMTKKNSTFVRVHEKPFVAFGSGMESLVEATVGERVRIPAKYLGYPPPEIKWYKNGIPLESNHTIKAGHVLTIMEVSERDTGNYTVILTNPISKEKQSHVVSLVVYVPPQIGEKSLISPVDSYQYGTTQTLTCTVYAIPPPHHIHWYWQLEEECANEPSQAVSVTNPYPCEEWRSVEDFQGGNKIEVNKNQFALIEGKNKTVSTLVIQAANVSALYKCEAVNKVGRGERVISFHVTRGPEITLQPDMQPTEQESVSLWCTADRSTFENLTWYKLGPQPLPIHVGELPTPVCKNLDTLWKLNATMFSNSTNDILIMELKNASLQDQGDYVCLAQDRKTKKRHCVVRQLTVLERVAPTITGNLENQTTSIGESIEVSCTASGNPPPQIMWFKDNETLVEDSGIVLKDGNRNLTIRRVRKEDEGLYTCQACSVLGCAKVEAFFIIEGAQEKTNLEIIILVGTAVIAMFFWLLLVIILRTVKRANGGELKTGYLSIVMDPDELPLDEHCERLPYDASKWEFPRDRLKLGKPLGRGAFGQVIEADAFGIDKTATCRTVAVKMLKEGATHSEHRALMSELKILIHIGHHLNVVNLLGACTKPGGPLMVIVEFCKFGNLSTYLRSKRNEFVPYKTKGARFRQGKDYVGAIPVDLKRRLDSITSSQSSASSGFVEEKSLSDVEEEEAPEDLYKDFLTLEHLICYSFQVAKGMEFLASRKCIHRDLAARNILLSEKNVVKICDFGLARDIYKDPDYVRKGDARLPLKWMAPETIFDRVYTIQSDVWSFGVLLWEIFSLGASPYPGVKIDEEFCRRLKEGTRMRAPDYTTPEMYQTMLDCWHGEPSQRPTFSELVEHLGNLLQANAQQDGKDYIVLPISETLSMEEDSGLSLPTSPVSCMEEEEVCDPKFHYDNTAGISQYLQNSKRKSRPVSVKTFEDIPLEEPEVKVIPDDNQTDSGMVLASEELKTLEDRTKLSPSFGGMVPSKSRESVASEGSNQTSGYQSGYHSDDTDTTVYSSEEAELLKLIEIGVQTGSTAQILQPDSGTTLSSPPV

Structure (SMILES) | inhibition percentage against VEGFR-2 (VEGFR-2 [1]) [%] | annexin-V positive cells (in words) (HCT116 cells [2]) | activity against the tested cell lines (in words) [3] | selectivity as anti-cancer agent (in words), from WI-38 IC50 [4] | IC50 ([4]; read-out: IC50 on WI-38 cell line, MTT, normal cell line) [µM] | anti-cancer activity against Hep G2 cell line (in words) [5] | IC50 ([5]; Homo sapiens, HepG2, MTT, 72 h exposure) [µM] | IC50 [6] [nM] | effect on cell cycle profile (in words) (HCT116 cells [7]; 24 h) | effect on cell cycle profile (in words) (HCT116 cells [7]; 48 h) | activity against VEGFR-2 (in words) (VEGFR-2 [8]; 10 µM) | inhibition at 10 µM (VEGFR-2 [8]; single concentration of 10 µM, read-out: % of VEGFR-2 Inhibition) [%] | IC50 [9] [µM]
COc1ccc(Nc2nc3ccc(NC(=O)c4ccccc4C(=O)O)cc3[nH]c2=O)cc1 [Compound 4] | 69 | – | – | – | – | – | – | – | – | – | – | – | –
Cc1nc2ccccc2nc1Nc1ccc(NC(=O)Nc2ccc(Cl)cc2)cc1 [Compound VIIIc, 1-(4-Chlorophenyl)-3-(4-((3-methylquinoxalin-2-yl)amino)phenyl)urea] | – | increased the percentage of annexin-V positive cells | promising activity | moderate selectivity | 97.2 ± 5.66 | moderate activity | 22 | 2500 | increase in G1 phase | cell cycle arrest at G2/M phase boundary | weak activity | 7 | 9
